ChEMBL document CHEMBL1201862, “PubChem BioAssay data set” (2004)
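Each compound was tested at five concentrations against cells in 96-well plates for 48 hours. Here, GI50 denotes the concentration required for 50% inhibition of growth.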 The source made the active and inactive calls. Cut-off read from the data, not from the text of the source: active = GI50 up to about 1.1 µM and inactive = higher.

Experiments:
Test in all cases: NCI-60 cell line screen, 48 h
SNB-19 = tested on: SNB-19
A498 = tested on: A498
SN12C = tested on: SN12C
Malme-3M = tested on: Malme-3M
HCT-15 = tested on: HCT-15
DU-145 = tested on: DU-145
SR = tested on: SR
OVCAR-4 = tested on: OVCAR-4
SNB-75 = tested on: SNB-75
UACC-62 = tested on: UACC-62
SF-295 = tested on: SF-295
SF-268 = tested on: SF-268
TK-10 = tested on: TK-10
SK-OV-3 = tested on: SK-OV-3
CAKI-1 = tested on: CAKI-1
HCT-116 = tested on: HCT-116
SF-539 = tested on: SF-539
U-251 = tested on: U-251
HOP-92 = tested on: HOP-92
NCI-H522 = tested on: NCI-H522

Compound	GI50 (SNB-19)	GI50 (A498)	GI50 (SN12C)	GI50 (Malme-3M)	GI50 (HCT-15)	GI50 (DU-145)	GI50 (SR)	GI50 (OVCAR-4)	GI50 (SNB-75)	GI50 (UACC-62)	GI50 (SF-295)	GI50 (SF-268)	GI50 (TK-10)	GI50 (SK-OV-3)	GI50 (CAKI-1)	GI50 (HCT-116)	GI50 (SF-539)	GI50 (U-251)	GI50 (HOP-92)	GI50 (NCI-H522)
Nc1nc(N)c2ncn(Cc3ccccc3CCl)c2n1	> 100 µM (inactive)	> 100 µM (inactive)	> 100 µM (inactive)	> 100 µM (inactive)	> 100 µM	> 100 µM (inactive)	8.51 µM (inactive)	80.5 µM (inactive)	> 100 µM (inactive)	> 100 µM (inactive)	> 100 µM (inactive)	> 100 µM (inactive)	> 100 µM (inactive)	> 100 µM (inactive)	> 100 µM (inactive)	> 100 µM (inactive)	> 100 µM (inactive)	> 100 µM (inactive)	> 100 µM (inactive)	> 100 µM (inactive)
O=c1c(NO)c([N+](=O)[O-])cnn1-c1ccccc1	10.9 µM (inactive)	20.6 µM (inactive)	3.08 µM (inactive)	4.6 µM (inactive)	4.78 µM	13.8 µM (inactive)	2.78 µM (inactive)	3.81 µM (inactive)	14.6 µM (inactive)	4.2 µM (inactive)	12.2 µM (inactive)	12.5 µM (inactive)	18.4 µM (inactive)	7.01 µM (inactive)	5.53 µM (inactive)	2.62 µM (inactive)	15.2 µM (inactive)	3.12 µM (inactive)	7.64 µM (inactive)	1.97 µM (inactive)
CC(=O)O[C@H]1/C(=C/c2ccncc2)C[C@H]2[C@@H]3CC=C4C[C@@H](N5CCCC5)CC[C@]4(C)[C@H]3CC[C@]12C	16.9 µM (inactive)	16.7 µM (inactive)	17 µM (inactive)	13 µM (inactive)	10.1 µM	14.6 µM (inactive)	5.2 µM (inactive)	15.9 µM (inactive)	14.7 µM (inactive)	14.2 µM (inactive)	14.5 µM (inactive)	15.1 µM (inactive)	14.6 µM (inactive)	17.9 µM (inactive)	14 µM (inactive)	3.41 µM (inactive)	18.6 µM (inactive)	11.5 µM (inactive)	4.24 µM (inactive)	15.2 µM (inactive)
Cc1cc2c(cc1C)C(=O)C1(C2)Cc2cc3c(cc2C1=O)CCC3 (stereo not given)	> 100 µM (inactive)	> 100 µM (inactive)	> 100 µM (inactive)	> 100 µM (inactive)	> 100 µM	> 100 µM (inactive)	> 100 µM (inactive)	> 100 µM (inactive)	> 100 µM (inactive)	> 100 µM (inactive)	> 100 µM (inactive)	> 100 µM (inactive)	> 100 µM (inactive)	> 100 µM (inactive)	> 100 µM (inactive)	> 100 µM (inactive)	4.95 µM (inactive)	> 100 µM (inactive)	> 100 µM (inactive)	> 100 µM (inactive)
CCOP(=O)(C=C=C1CCC2[C@@H]3CCc4cc(OC)ccc4C3CC[C@]12C)OCC (stereo not given in full)	13.6 µM (inactive)	12 µM (inactive)	10.4 µM (inactive)	15.6 µM (inactive)	10.9 µM	14 µM (inactive)	1 µM (active)	6.24 µM (inactive)	12.7 µM (inactive)	3.89 µM (inactive)	5.6 µM (inactive)	11.9 µM (inactive)	12.7 µM (inactive)	16.7 µM (inactive)	12.9 µM (inactive)	5.22 µM (inactive)	14.9 µM (inactive)	11 µM (inactive)	10.1 µM (inactive)	4.16 µM (inactive)
COc1cc([C@H]2c3cc4c(cc3O[C@@]3(O)COC(=O)[C@@H]23)OCO4)cc(OC)c1OC	> 100 µM (inactive)	> 100 µM (inactive)	> 100 µM (inactive)	> 100 µM (inactive)	> 100 µM	> 100 µM (inactive)	> 100 µM (inactive)	> 100 µM (inactive)	> 100 µM (inactive)	> 100 µM (inactive)	> 100 µM (inactive)	> 100 µM (inactive)	> 100 µM (inactive)	> 100 µM (inactive)	> 100 µM (inactive)	> 100 µM (inactive)	> 100 µM (inactive)	> 100 µM (inactive)	> 100 µM (inactive)	> 100 µM (inactive)
CC(=O)Oc1ccc(/C=C/C(=O)OCCOC(=O)/C=C/c2ccc(OC(C)=O)c(OC(C)=O)c2)cc1OC(C)=O	11.9 µM (inactive)	22 µM (inactive)	11.7 µM (inactive)	12.4 µM (inactive)	4.75 µM	9.06 µM (inactive)	3.78 µM (inactive)	4.63 µM (inactive)	4.23 µM (inactive)	5 µM (inactive)	8.97 µM (inactive)	8.43 µM (inactive)	10.2 µM (inactive)	13.9 µM (inactive)	3.26 µM (inactive)	4.66 µM (inactive)	2.72 µM (inactive)	4.99 µM (inactive)	5.77 µM (inactive)	2.93 µM (inactive)
